According to patent US20210275624A1, “TREATMENTS FOR IMPROVING OR LESSENING IMPAIRMENT OF MITOCHONDRIAL FUNCTION” (priority 2020, published 2021):
Square brackets hold non-standard residues; d marks the D form. Peptide text beside a SMILES is read from it. Cya = N[C@@H](CS(=O)(=O)O)C(=O)O

Experiments:
human RPE cells [1] = test: WST assay (mitochondrial dehydrogenase activity / cell viability); assay type: cell-based; details: 2.5 hours
Experimental: Human donor RPE cells were seeded on collagen-coated 96-well plates, 24-well plates with or without coverslips, 6-well plates (Corning-Costar Incorporated, Corning, N.Y., USA). Except for the Seahorse assay, on day 6 after plating, cells were washed twice with serum-free and phenol red-free MEM (SF-MEM), treated with HQ at a various concentrations in the presence or absence of RSG (0.4 mM) in SF-MEM for various times at 37° C. RSG co-treatment refers to the condition in which cells were treated with RSG in the presence of HQ. Control refers to the condition in which cells were not treated. RPE cells in triplicate wells of a 96-well plate were treated with HQ (150 μM) for 2.5 hours in the presence or absence of RSG (0.4 mM). The medium was removed and cells were incubated with WST-1 solution for 30 minutes at 37° C. A colorimetric assay was performed based on the cleavage of the tetrazolium salt WST-1 by mitochondrial dehydrogenases in viable cells. The plate was read on a spectrophotometer at 440 nm with a reference wavelength at 690 nm.

HMOX-1 = test: Real-time RT-PCR (qPCR) of HMOX-1; assay type: cell-based, human; details: 4 hours
Experimental: RPE cells in triplicate wells of a 12-well plate were treated with HQ (250 μM) in the presence or absence of RSG (0.4 mM) for 4 hours. Total RNA was isolated using RNeasy Plus Mini Kit according to the manufacturer's specifications and real-time quantitative reverse transcription-polymerase chain reaction (qPCR) was performed as we have described previously. Primer pairs for HMOX-1 and ribosomal protein, large, PO (RPLPO) were as follows (5′ to 3′): HMOX-1, forward: CAG GAG CTG ACC CAT GA; reverse: AGCAACTGTCGCCACCAGAA; RPLPO, forward: GGACATGTTGCTGGCCAATAA; reverse: GGG CCC GAG ACC AGT GTT.

heme oxygenase-1 (HO-1) = test: Western blot of HO-1; assay type: cell-based, human; details: for HO-1 protein level (Western blot): 8 hours
Experimental: RPE cells in triplicate wells of a 6-well plate were treated with HQ (170 μM) in the presence or absence of RSG (0.4 mM) for 8 hours. Total protein were extracted with RIPA buffer supplemented with protease inhibitors and phosphatase inhibitors, quantified with Bradford protein assay, and subjected to SDS-PAGE and Western blot as we have previously described.^21

human RPE cells [2] = assay type: cell-based; details: RSG 0.4 mM co-treatment with HQ 175 μM, 1.5 hours, vs HQ-treated cells
Experimental: RPE cells were seeded in triplicate wells of collagen-coated XF 24-well plates and grown for 24 hours. RPE cells that had just reached confluence were washed with SF-MEM and treated for 1.5 hours with HQ (175 μM) with or without RSG (0.4 mM). Media were removed and cells were washed with XF base medium containing 1 mM sodium pyruvate, 2 mM glutamine and 8 mM glucose, pH 7.4. The cells were incubated for 1 hour at 37° C. in a C02-free incubator. Oxygen consumption rate (OCR) was measured by Seahorse XFe24 flux analyzer under basal conditions followed by the sequential addition of 1 μM oligomycin, 1 μM tri-fluorocarbonylcyanide phenylhydrazone (FCCP), and 1 μM rotenone and antimycin A. Maximal OCR was the difference in OCR between FCCP-induced respiration and OCR after injection of antimycin A. Mitochondrial spare respiratory capacity was the difference between maximal respiration and basal OCR. Media were removed and the total proteins were extracted for BCA protein assay after OCR measurements. OCRs were normalized to total protein content.

dog heart failure model = test: Dog heart failure model (coronary microembolization), ventriculographic and hemodynamic measurements; assay type: in vivo; details: for Left Ventricle Ejection Fraction: n = 3, pretreatment 32; for Cardiac Output, Δ vs pretreatment / Left Ventricle Ejection Fraction, Δ vs pretreatment / Stroke Volume, Δ vs pretreatment / Cardiac Output / Mean Pulmonary Artery Wedge Pressure / L V End Diastolic Pressure / Mean Pulmonary Artery Pressure / Stroke Volume / L V End Systolic Volume / L V End Diastolic Volume / Mean Aortic Pressure / Heart Rate / Systemic Vascular Resistance / L V Peak + dP/dt: post 3rd inj.; for Cardiac Output: pretreatment 1.81; for Mean Pulmonary Artery Wedge Pressure: pretreatment 9.3; for L V End Diastolic Pressure: pretreatment 13; for Mean Pulmonary Artery Pressure: pretreatment 17; for Stroke Volume: pretreatment 21; for L V End Systolic Volume: pretreatment 43; for L V End Diastolic Volume: pretreatment 64; for Mean Aortic Pressure: pretreatment 75; for Heart Rate: pretreatment 88; for Systemic Vascular Resistance: pretreatment 3391
Experimental: An initial study was conducted to assess the effects of Risuteganib administered intravenously at doses of 1.0 mg/kg and 5.0 mg/kg in a dog heart failure model. The subject animals underwent coronary microembolization to induce heart failure as described in Sabbah, H., et al.; Chronic Therapy with Elamipretide (MTP-131), a Novel Mitochondria-Targeting Peptide, Improves Left Ventricular and Mitochondrial Function in Dogs with Advanced Heart Failure; Circ Heart Fail. 2016 February; 9(2): e002206. doi:10.1161/CIRCHEARTFAILURE.115.002206.
Three (3) dogs were received 1.0 mg/kg Risuteganib every 2 weeks for 6 weeks. After an intervening period of approximately one week, the same three (3) dogs then received 5.0 mg/kg Risuteganib every 2 weeks for 6 additional weeks. Ventriculographic and hemodynamic measurements were made prior to the first intravenous dose of Risuteganib, after the third biweekly 1.0 mg/kg intravenous dose of Risuteganib and again after the third biweekly 5.0 mg/kg intravenous dose of Risuteganib.

[3] = 1.0 mg/kg IV q 2 weeks for 6 weeks
[4] = 5.0 mg/kg IV q 2 weeks for 6 weeks

## Oc1ccc(O)cc1 [HQ, hydroquinone, reference compound]
Human RPE cells [1]; HQ 150 μM
  cell viability (WST-1): significantly decreased cell viability
HMOX-1; HQ 250 μM
  HMOX-1 gene level (qPCR): significantly up-regulated
Heme oxygenase-1 (HO-1); HQ 170 μM
  HO-1 protein level (Western blot): significantly up-regulated

## C[C@@H](O)[C@H](NC(=O)[C@H](CS(=O)(=O)O)NC(=O)CNC(=O)[C@H](CCCNC(=N)N)NC(=O)CN)C(=O)N1CCC[C@H]1C(=O)O [Risuteganib, Glycyl-L-arginylglycyl-3-sulfo-L-alanyl-L-threonyl-L-proline] (H-GRG[Cya]TP-OH)
Human RPE cells [1]; RSG 0.4 mM co-treatment with HQ 150 μM, vs HQ alone
  cell viability (WST-1, mitochondrial dehydrogenase activity): significantly increased cell viability
Human RPE cells [2]
  ATP production: significantly increased
  spare respiratory capacity: significantly increased
HMOX-1; RSG 0.4 mM co-treatment with HQ 250 μM
  HMOX-1 gene level (qPCR): further up-regulated
Heme oxygenase-1 (HO-1); RSG 0.4 mM co-treatment with HQ 170 μM
  HO-1 protein level (Western blot): further up-regulated
Heme oxygenase-1 (HO-1); RSG alone
  cellular stress and HO-1 activation: did not induce observable cellular stress and HO-1 activation
Dog heart failure model; 1.0 mg/kg IV q 2 weeks for 6 weeks, post 3rd 1.0 mg/kg IV inj.
  Left Ventricle Ejection Fraction: 37%
Dog heart failure model; [3]
  Cardiac Output, Δ vs pretreatment: Δ = +0.14 L/min
  Left Ventricle Ejection Fraction, Δ vs pretreatment: Δ = +5%
  Stroke Volume, Δ vs pretreatment: Δ = +2 mL
  Cardiac Output: 1.95 L/min
  Mean Pulmonary Artery Wedge Pressure: 9.0 mmHg
  L V End Diastolic Pressure: 13 mmHg
  Mean Pulmonary Artery Pressure: 16 mmHg
  Stroke Volume: 23 mL
  L V End Systolic Volume: 0.04 L
  L V End Diastolic Volume: 0.063 L
  Mean Aortic Pressure: 71 mmHg
  Heart Rate: 86 beats/min
  Systemic Vascular Resistance: 2954 dynes-sec-cm-5
Dog heart failure model; 5.0 mg/kg IV q 2 weeks for 6 weeks, post 3rd 5.0 mg/kg IV inj.
  Left Ventricle Ejection Fraction: 41%
Dog heart failure model; [4]
  Cardiac Output, Δ vs pretreatment: Δ = +0.57 L/min
  Left Ventricle Ejection Fraction, Δ vs pretreatment: Δ = +9%
  Stroke Volume, Δ vs pretreatment: Δ = +5 mL
  Cardiac Output: 2.38 L/min
  Mean Pulmonary Artery Wedge Pressure: 9.0 mmHg
  L V End Diastolic Pressure: 13 mmHg
  Mean Pulmonary Artery Pressure: 16 mmHg
  Stroke Volume: 27 mL
  L V End Systolic Volume: 0.039 L
  L V End Diastolic Volume: 0.067 L
  Mean Aortic Pressure: 84 mmHg
  Heart Rate: 87 beats/min
  Systemic Vascular Resistance: 2924 dynes-sec-cm-5
Dog heart failure model; first line so headed (r26), 1.0 mg/kg IV q 2 weeks for 6 weeks, pretreatment 1241
  L V Peak + dP/dt: 1267 mmHg/sec
Dog heart failure model; first line so headed (r26), 5.0 mg/kg IV q 2 weeks for 6 weeks, pretreatment 1241
  L V Peak + dP/dt: 1288 mmHg/sec
Dog heart failure model; heart failure dogs, 1.0 mg/kg and 5.0 mg/kg intravenously
  cardiac function: improved
Dog heart failure model; second line so headed (r29), 1.0 mg/kg IV q 2 weeks for 6 weeks, pretreatment 1509
  L V Peak + dP/dt: 1325 mmHg/sec
Dog heart failure model; second line so headed (r29), 5.0 mg/kg IV q 2 weeks for 6 weeks, pretreatment 1509
  L V Peak + dP/dt: 1338 mmHg/sec
